From US9067897B2, “2,4-Diaminoquinazolines for spinal muscular atrophy” (Families of Spinal Muscular Atrophy, priority 2004, dated 2015)
pEC50: −log10 of the molar value. Structures can show the parent of a compound that is named as a salt.

Test system: SMN2 promoter
Test: SMN2 promoter assay (β-lactamase reporter) in NSC-34 cells
Assay type: cell-based, mouse
Details: SMN2 promoter driving β-lactamase, 12 point dose curve, average of 3-6 dose curve experiments
Description: All compounds were screened using an in vitro based SMN2 promoter assay. We used NSC-34 cells, a hybrid cell line between mouse spinal cord cells and mouse neuroblastoma cells. NSC-34 cells harbor an expression plasmid containing a 3.4 kb promoter fragment of the SMN2 gene driving β-lactamase expression.
[…] […] CCF2-AM diffuses across the plasma membrane and is converted into an active β-lactamase substrate by cytoplasmic esterase. […] The fold induction is proportional to the extent of β-lactamase produced and in turn proportional to SMN2 promoter activation for a given compound relative to vehicle (DMSO) control. […] These values are used to rank activities of the compounds and derive structure activity relationship.

| Compound | pEC50 (Mus musculus) | pEC50 |
| --- | --- | --- |
| Nc1nc(N)c2c(N3CCCCC3)cccc2n1 [Example 59, 5-(Piperidin-1-yl)quinazoline-2,4-diamine] | > 6.00 |  |
| Cc1cccc(S(=O)(=O)c2cccc3nc(N)nc(N)c23)c1 [Example 60, 5-(Toluene-3-sulfonyl)-quinazoline-2,4-diamine] | 5.30 to 6.00 |  |
| COc1ccc(COc2cccc3nc(N)nc(N)c23)cc1OC [Example 65, 5-(3,4-Dimethoxybenzyloxy)-quinazoline-2,4-diamine] | > 6.00 |  |
| COc1cccc(C(C)Oc2cccc3nc(N)nc(N)c23)c1 (centres unmarked) [Example 66, 5-[1-(3-Methoxyphenyl)-ethoxy]-quinazoline-2,4-diamine] | > 6.00 |  |
| COCOCC(COc1cccc2nc(N)nc(N)c12)c1ccc(Cl)cc1 (centres unmarked) [Example 68, 5-[2-(4-Chlorophenyl)-3-methoxymethoxypropoxy]-quinazoline-2,4-diamine] | > 6.00 |  |
| Nc1nc(N)c2c(OCC(CO)c3ccc(Cl)cc3)cccc2n1 (centres unmarked) [Example 69, 2-(4-Chlorophenyl)-3-(2,4-diaminoquinazolin-5-yloxy)-propan-1-ol hydrochloride] | > 6.00 |  |
| Nc1nc(N)c2c(OCc3cc(Cl)c(Cl)cc3CO)cccc2n1 [Example 70, [4,5-Dichloro-2-(2,4-diaminoquinazolin-5-yloxymethyl)phenyl]methanol hydrochloride] | > 6.00 |  |
| COc1cc(Cl)ccc1Oc1cccc2nc(N)nc(N)c12 [Example 71, 5-(4-Chloro-2-methoxyphenoxy)-quinazoline-2,4-diamine] | > 6.00 |  |
| Nc1nc(N)c2c(OCC34CC5CC(CC(C5)C3)C4)cccc2n1 [Example 73, 5-(Adamantan-1-ylmethoxy)-quinazoline-2,4-diamine] | > 6.00 |  |
| Nc1nc(N)c2c(OCc3ccccc3Br)cccc2n1 [Example 74, 5-(2-Bromo-benzyloxy)-quinazoline-2,4-diamine] | > 6.00 |  |
| Nc1nc(N)c2c(OCc3cccc(I)c3)cccc2n1 [Example 77, 5-(3-Iodo-benzyloxy)-quinazoline-2,4-diamine] | > 6.00 |  |
| CC(Oc1cccc2nc(N)nc(N)c12)c1ccc(Cl)c(Cl)c1 (centres unmarked) [Example 78, 5-[1-(3,4-Dichlorophenyl)-ethoxy]-quinazoline-2,4-diamine] | > 6.00 |  |
| Nc1nc(N)c2c(OCc3cc(F)cc(F)c3)cccc2n1 [Example 79, 5-(3,5-Difluorobenzyloxy)quinazoline-2,4-diamine] | > 6.00 |  |
| Nc1nc(N)c2c(OC3CCc4c(F)cccc43)cccc2n1 (centres unmarked) [Example 80, 5-(4-Fluoroindan-1-yloxy)-quinazoline-2,4-diamine] | > 6.00 |  |
| Nc1nc(N)c2c(OC3CCc4ccc(F)cc43)cccc2n1 (centres unmarked) [Example 81, 5-(6-Fluoroindan-1-yloxy)-quinazoline-2,4-diamine] | > 6.00 |  |
| Nc1nc(N)c2c(OCc3cc(F)cc(F)c3F)cccc2n1 [Example 83, 5-(2,3,5-Trifluorobenzyloxy)-quinazoline-2,4-diamine] | > 6.00 |  |
| Nc1nc(N)c2c(OCc3cc(F)ccc3F)cccc2n1 [Example 84, 5-(2,5-Difluorobenzyloxy)-quinazoline-2,4-diamine] | > 6.00 |  |
| Nc1nc(N)c2c(OCc3ccc(F)cc3F)cccc2n1 [Example 85, 5-(2,4-Difluorobenzyloxy)-quinazoline-2,4-diamine] | > 6.00 |  |
| Nc1nc(N)c2c(OCc3c(F)cccc3F)cccc2n1 [Example 86, 5-(2,6-Difluorobenzyloxy)-quinazoline-2,4-diamine] | > 6.00 |  |
| Nc1nc(N)c2c(OCc3ccc(F)c(F)c3)cccc2n1 [Example 87, 5-(3,4-Difluorobenzyloxy)quinazoline-2,4-diamine] | > 6.00 |  |
| COc1ccc(Cl)cc1COc1cccc2nc(N)nc(N)c12 [Example 88, 5-(5-Chloro-2-methoxybenzyloxy)quinazoline-2,4-diamine] | > 6.00 |  |
| Nc1nc(N)c2c(OCc3cc(Cl)ccc3CO)cccc2n1 [Example 89, [4-Chloro-2-(2,4-diamino-quinazolin-5-yloxymethyl)-phenyl]-methanol hydrochloride] | > 6.00 |  |
| C[C@@H](Oc1cccc2nc(N)nc(N)c12)c1cccc(Cl)c1 [Example 92, 5-[(R)-1-(3-Chlorophenyl)ethoxyl]quinazolin-2,4-diamine] | > 6.00 |  |
| CC(Oc1cccc2nc(N)nc(N)c12)c1ccccc1C(F)(F)F (centres unmarked) [Example 94, 5-[1-(2-Trifluoromethylphenyl)-ethoxy]-quinazoline-2,4-diamine] | 4.70 to 5.00 |  |
| CC(Oc1cccc2nc(N)nc(N)c12)c1cccc(C(F)(F)F)c1 (centres unmarked) [Example 95, 5-[1-(3-Trifluoromethylphenyl)-ethoxy]-quinazoline-2,4-diamine] | > 6.00 |  |
| CC(Oc1cccc2nc(N)nc(N)c12)c1ccccc1F (centres unmarked) [Example 103, 5-[1-(2-Fluorophenyl)-ethoxy]-quinazoline-2,4-diamine] | > 6.00 |  |
| CC(Oc1cccc2nc(N)nc(N)c12)c1ccc(C(F)(F)F)cc1 (centres unmarked) [Example 105, 5-[1-(4-Trifluoromethylphenyl)ethoxy]quinazoline-2,4-diamine] | > 6.00 |  |
| C[C@H](Oc1cccc2nc(N)nc(N)c12)c1cccc2ccccc12 [Example 108, 5-((S)-1-Naphthalen-1-yl-ethoxy)-quinazoline-2,4-diamine] | 5.30 to 6.00 |  |
| C[C@H](Oc1cccc2nc(N)nc(N)c12)c1ccc2ccccc2c1 [Example 109, 5-((S)-1-Naphthalen-2-yl-ethoxy)-quinazoline-2,4-diamine] | > 6.00 |  |
| C[C@@H](Oc1cccc2nc(N)nc(N)c12)c1cccc2ccccc12 [Example 110, 5-((R)-1-Naphthalen-1-yl-ethoxy)-quinazoline-2,4-diamine] | 5.30 to 6.00 |  |

Now from value to compound:

| pEC50 (Mus musculus) | pEC50 | Compound |
| --- | --- | --- |
| > 6.00 |  | CC(Oc1cccc2nc(N)nc(N)c12)c1ccccn1 (centres unmarked) [Example 57, 5-(1-Pyridin-2-ylethoxy)quinazoline-2,4-diamine] |
| > 6.00 |  | CC(Oc1cccc2nc(N)nc(N)c12)c1nccs1 (centres unmarked) [Example 58, 5-(1-Thiazol-2-ylethoxy)quinazoline-2,4-diamine] |
| > 6.00 |  | Nc1nc(N)c2c(OC3CCc4ccc(Cl)cc43)cccc2n1 (centres unmarked) [Example 61, 5-(6-Chloro-indan-1-yloxy)-quinazoline-2,4-diamine] |
| > 6.00 |  | Nc1nc(N)c2c(OCc3ccc(Br)cc3)cccc2n1 [Example 62, 5-(4-Bromobenzyloxy)-quinazoline-2,4-diamine] |
| > 6.00 |  | CC(Oc1cccc2nc(N)nc(N)c12)c1cccc(I)c1 (centres unmarked) [Example 63, 5-[1-(3-Iodophenyl)-ethoxy]-quinazoline-2,4-diamine] |
| > 6.00 |  | CC(Oc1cccc2nc(N)nc(N)c12)c1ccc2c(c1)OCO2 (centres unmarked) [Example 64, 5-(1-Benzo[1,3]-dioxol-5-yl-ethoxy)-quinazoline-2,4-diamine] |
| > 6.00 |  | COc1cc(OC)cc(C(C)Oc2cccc3nc(N)nc(N)c23)c1 (centres unmarked) [Example 67, 5-[1-(3,5-Dimethoxyphenyl)-ethoxy]-quinazoline-2,4-diamine] |
|  | 5.30 to 6.00 | COc1cccc2c1OCC2Oc1cccc2nc(N)nc(N)c12 (centres unmarked) [Example 72, 5-(7-Methoxy-2,3-dihydrobenzofuran-3-yoloxy)-quinazoline-2.4-diamine] |
| > 6.00 |  | Nc1nc(N)c2c(OCc3ccccc3I)cccc2n1 [Example 75, 5-(2-Iodo-benzyloxy)-quinazoline-2,4-diamine] |
| > 6.00 |  | Nc1nc(N)c2c(OCc3cccc(Br)c3)cccc2n1 [Example 76, 5-(3-Bromobenzyloxy)quinazoline-2,4-diamine] |
| > 6.00 |  | CC(Oc1cccc2nc(N)nc(N)c12)c1c(F)cccc1F (centres unmarked) [Example 82, 5-[1-(2,6-Difluorophenyl)-ethoxy]-quinazoline-2,4-diamine] |
| 5.30 to 6.00 |  | Nc1nc(N)c2c(-c3ccsc3)cccc2n1 [Example 90, 5-Thiophen-3-yl-quinazoline-2,4-diamine] |
| > 6.00 |  | Nc1nc(N)c2c(-c3cccc(Cl)c3)cccc2n1 [Example 91, 5-(3-Chlorophenyl)-quinazoline-2,4-diamine] |
| > 6.00 |  | CC(Oc1cccc2nc(N)nc(N)c12)c1cccc(F)c1 (centres unmarked) [Example 93, 5-[1-(3-Fluorophenyl)-ethoxy]-quinazoline-2,4-diamine] |
| > 6.00 |  | Nc1nc(N)c2c(OCc3ccccc3F)cccc2n1 [Example 96, 5-(2-Fluorobenzyloxy)-quinazoline-2,4-diamine] |
| > 6.00 |  | Nc1nc(N)c2c(OCc3ccc(F)cc3)cccc2n1 [Example 97, 5-(4-Fluorobenzyloxy)-quinazoline-2,4-diamine] |
| > 6.00 |  | Nc1nc(N)c2c(OCc3cccc(C(F)(F)F)c3)cccc2n1 [Example 98, 5-(3-Trifluoromethylbenzyloxy)-quinazoline-2,4-diamine] |
| > 6.00 |  | Nc1nc(N)c2c(OCc3ccccc3C(F)(F)F)cccc2n1 [Example 99, 5-(2-Trifluoromethylbenzyloxy)-quinazoline-2,4-diamine] |
| > 6.00 |  | Nc1nc(N)c2c(OCc3ccc(C(F)(F)F)cc3)cccc2n1 [Example 100, 5-(4-Trifluoromethylbenzyloxy)-quinazoline-2,4-diamine] |
| > 6.00 |  | CC(Oc1cccc2nc(N)nc(N)c12)c1ccccc1Cl (centres unmarked) [Example 104, 5-[1-(2-Chlorophenyl)ethoxy]-quinazoline-2,4-diamine] |
| > 6.00 |  | Nc1nc(N)c2c(OCc3cc(Cl)cc(Cl)c3)cccc2n1 [Example 106, 5-(3,5-Dichlorobenzyloxy)quinazoline-2,4-diamine] |
| > 6.00 |  | CC(Oc1cccc2nc(N)nc(N)c12)c1cc(F)cc(F)c1 (centres unmarked) [Example 107, 5-[1-(3,5-Difluorophenyl)ethoxy]quinazoline-2,4-diamine] |
| 5.30 to 6.00 |  | CC(Oc1cccc2nc(N)nc(N)c12)c1cccc2ccccc12 (centres unmarked) [Example 111, 5-(1-Naphthalen-1-yl-ethoxy)-quinazoline-2,4-diamine] |
